Measurements: patent publication US11360080B2, “AhR-ROR-γt complex as a biomarker and therapeutic target for autoimmune disease and IL-17A-associated disease” (NATIONAL HEALTH RESEARCH INSTITUTES, priority 2018, dated 2022)

How the values were obtained:
[1] = tested on: splenic T cells (Treg differentiation); test: In vitro Treg differentiation, flow cytometry of Foxp3-producing CD4+ T cells; format: cell-based, mouse; conditions: 5 μM
Experimental: (§1) (A) Flow cytometry of IL-17A-producing CD4^+ T cells. Splenic T cells were co-treated with verteporfin (C1) (1 or 5 μM) during Th17 differentiation in vitro. (B) Flow cytometry of IL-17A-producing CD4^+ T cells. Murine in vitro differentiated Th17 cells were stimulated with PMA plus ionomycin and co-treated with verteporfin (C1) (1 or 5 μM) for 30 min. (C) Flow cytometry of Foxp3-producing […] T cells. Splenic T cells were co-treated with verteporfin (C1) (5 μM) during Treg differentiation in vitro. (D) Flow cytometry of Foxp3-producing CD4^+ T cells, which were differentiated from CD4^+ T cells of wild-type or Lck-GLK transgenic mice.

[2] = tested on: splenic T cells (Th17 differentiation); test: In vitro Th17 differentiation, flow cytometry of IL-17A-producing CD4+ T cells; format: cell-based, mouse; conditions: 1 or 5 μM during differentiation
Experimental: as §1
CD4^+ splenic T cells were purified from mice. Cells (5×10^5) were cultured in 1 ml RPMI medium in 48-well plates coated with anti-CD3 (2 μg/ml) and anti-CD28 (3 μg/ml) antibodies. For Th17 differentiation, splenic CD4^+ cells were cultured in the medium containing IL-23 recombinant proteins (50 ng/ml, R&D), IL-6 recombinant proteins (20 ng/ml, R&D), TGF-β recombinant proteins (5 ng/ml, R&D), anti-IL-4 (5 μg/ml, Biolegend), and anti-IFN-γ (5 μg/ml, Biolegend) antibodies. For Th1 differentiation, CD4^+ splenic cells were cultured in the medium containing IL-12 recombinant proteins (5 ng/ml, R&D) and anti-IL-4 antibodies (1 μg/ml, Biolegend).

murine primary T cells = test: ELISA of cytokines in supernatants of murine primary T cells stimulated with anti-CD3/CD28; format: cell-based, mouse; conditions: 5 μM or 10 μM for 3 days
Experimental: Means±SD are shown, (b) ELISA of IL-17A in supernatants of human T cells. T cells were stimulated with anti-CD3/CD28 and treated with C1 (verteporfin) (1 μM or 5 μM) or C2 (1 μM or 5 μM) for 3 days. HC, healthy control; SLE, systemic lupus erythematosus; RA, rheumatoid arthritis; AS, ankylosing spondylitis; PsA, psoriatic arthritis; PSS, primary Sjögren's syndrome. Means±SD are shown. C1 denotes verteporfin; C2 denotes alexidine dihydrochloride.
We further studied whether IL-17A production is abolished by the inhibitors of GLK-induced AhR-RORγt complex in human and murine T cells. We first tested the inhibitor experiment using murine T cells stimulated with TCR signaling (anti-CD3 plus anti-CD28 antibodies). […] Next, we studied the blocking effect of IL-17 production by the treatment of C1 (verteporfin) or C2 (alexidine dihydrochloride) using human peripheral blood T cells. […] Taken together, GLK inhibitors (verteporfin and alexidine dihydrochloride) inhibit GLK-induced AhR-RORγt complex and IL-17A production in human autoimmune patient T cells, as well as the disease severity of autoimmune animal models. Thus, GLK, GLK signaling, or GLK-induced AhR-RORγt complex can be a promising therapeutic target for autoimmune diseases.

AhR-RORγt complex = target: T1, AhR-RORγt complex (UniProt P35869+P51450); test: FRET assay of HEK293T cells co-transfected with CFP-AhR, YFP-RORγt and IKKβ plasmids; format: cell-based; conditions: IKKβ
T1 construct: expressed in transfected cells; host or cells: HEK293T
T1 sequence (P35869 11-848): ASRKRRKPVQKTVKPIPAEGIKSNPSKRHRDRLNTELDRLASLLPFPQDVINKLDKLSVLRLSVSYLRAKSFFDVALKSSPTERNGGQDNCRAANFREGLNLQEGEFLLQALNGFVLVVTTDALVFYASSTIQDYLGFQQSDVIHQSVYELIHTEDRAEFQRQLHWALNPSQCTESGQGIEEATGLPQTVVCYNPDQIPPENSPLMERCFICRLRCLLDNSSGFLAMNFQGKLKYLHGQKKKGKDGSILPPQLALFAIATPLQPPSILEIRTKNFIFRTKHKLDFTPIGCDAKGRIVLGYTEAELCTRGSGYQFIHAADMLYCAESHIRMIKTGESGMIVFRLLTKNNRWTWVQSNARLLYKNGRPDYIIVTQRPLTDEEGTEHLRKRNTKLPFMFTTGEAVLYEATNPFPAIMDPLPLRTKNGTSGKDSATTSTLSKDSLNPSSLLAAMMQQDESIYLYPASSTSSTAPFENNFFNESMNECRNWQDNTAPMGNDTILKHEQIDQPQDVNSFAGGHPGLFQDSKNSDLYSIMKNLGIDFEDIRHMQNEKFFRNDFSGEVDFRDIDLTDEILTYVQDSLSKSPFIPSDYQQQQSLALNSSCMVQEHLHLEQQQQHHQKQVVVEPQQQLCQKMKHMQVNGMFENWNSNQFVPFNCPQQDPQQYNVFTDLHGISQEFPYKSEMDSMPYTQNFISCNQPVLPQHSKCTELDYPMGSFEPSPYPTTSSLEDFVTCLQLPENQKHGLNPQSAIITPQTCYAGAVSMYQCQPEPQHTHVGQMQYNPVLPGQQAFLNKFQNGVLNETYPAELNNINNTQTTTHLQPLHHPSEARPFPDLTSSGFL
T1 sequence (P51450 1-495 isoform P51450-2 T331K): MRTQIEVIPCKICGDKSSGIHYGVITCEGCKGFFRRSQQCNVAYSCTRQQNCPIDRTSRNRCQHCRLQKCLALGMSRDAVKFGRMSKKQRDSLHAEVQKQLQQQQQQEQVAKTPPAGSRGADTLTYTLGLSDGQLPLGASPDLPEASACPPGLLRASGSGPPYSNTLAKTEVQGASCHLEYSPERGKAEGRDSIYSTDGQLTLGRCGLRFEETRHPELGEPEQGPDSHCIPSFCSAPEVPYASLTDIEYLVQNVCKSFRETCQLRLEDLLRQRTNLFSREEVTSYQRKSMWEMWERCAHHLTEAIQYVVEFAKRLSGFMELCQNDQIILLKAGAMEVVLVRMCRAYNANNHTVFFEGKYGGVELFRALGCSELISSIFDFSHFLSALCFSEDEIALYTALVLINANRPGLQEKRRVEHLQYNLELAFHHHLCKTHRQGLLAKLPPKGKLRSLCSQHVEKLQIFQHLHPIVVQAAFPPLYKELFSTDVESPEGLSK
Experimental: (A) Luciferase activity of NF-κB-driven reporter assays in stable GLK-transfected CHO-K1 cells that were treated with or without the GLK inhibitor C1 (verteporfin) under the indicated concentration. The fold changes are presented relative to the value of vector control. (B) Recombinant proteins of GLK kinase domain plus recombinant proteins of GST-tagged kinase-dead PKCθ (K409W) were subjected to in vitro kinase assays in the presence or absence of the GLK inhibitor C1 (verteporfin). Means±SD of are shown. *, P value<0.05; **, P value<0.01 (two-tailed Student's t-test). (C) The AhR-RORγt complex was inhibited by the GLK inhibitor. […] (D) Quantification of the PLA signals of (C). […]
FRET signal in live cells was detected by EnVision 2104 Multilabel Plate Reader (Perkin Elmer). The reaction was excited by light passing through a 430-nm filter (with 8 nm bandwidth), and the intensity of emitted fluorescence passing through a 530-nm filter (with 8 nm bandwidth) was recorded. If the protein-protein pair is in close proximity (1-10 nm), a 530-nm signal will be detected. The FRET efficiency was calculated using the following equation: FRET efficiency=((FRET−CFP×a−YFP×b)/YFP)×100%, where FRET, CFP, and YFP correspond to the fluorescent intensities acquired through FRET, CFP, and YFP filter sets, respectively; a and b are the donor emission and acceptor excitation crosstalk ratios, respectively. […]

## C=Cc1c(C)c2cc3nc(cc4[nH]c(cc5nc(cc1[nH]2)C(C)=C5CCC(=O)O)c(CCC(=O)OC)c4C)[C@@]1(C)C3=CC=C(C(=O)OC)[C@H]1C(=O)OC [C1, verteporfin]
[1]
  in vitro Treg (Foxp3-expressing CD4+ T cell) differentiation: enhanced
[2]
  Th17 differentiation: inhibited
Murine primary T cells
  TCR-induced IFN-γ level: partially reduced
  TCR-induced IL-17A production: drastically abolished
  TCR-induced IL-17B level: not decreased
  TCR-induced IL-17E level: not decreased
  TCR-induced IL-17F level: not decreased
  TCR-induced TNF-α level: partially reduced
AhR-RORγt complex
  FRET signals AhR-RORγt: inhibited
